In patent publication US20150148372A1, “BICYCLIC HETEROCYCLES AS BET PROTEIN INHIBITORS” (Incyte Corporation, priority 2013, published 2015):

Tests used:
BRD4-BD2 = target: T1, BRD4-BD2 (Homo sapiens, UniProt O60885); assay: BRD4 AlphaScreen assay, BD2; assay type: binding; conditions: H4Ac4 peptide, 20 nM BRD4-BD2, read-out: BRD4 BD-2 enzyme IC50
T1 construct: 20 nM (BRD4-BD2, BPS Bioscience #31041); purchased BPS Bioscience 31041
Description: (§1) BRD4-BD1 and BRD4-BD2 assays were conducted in white 384-well polystyrene plate in a final volume of 20 μL for BD1 and 40 μL for BD2. Inhibitors were first serially diluted in DMSO and added to the plate wells before the addition of other reaction components. The final concentration of DMSO in the assay was 1.25% (BD1) and 0.83% (BD2). The assays were carried out at room temperature for 75 min. in the assay buffer (50 mM HEPES, pH 7.4, 100 mM NaCl, 0.05% CHAPS, 0.01% BSA), containing 50 nM Biotin-labeled tetra-acetylated histone H4 peptide (H4Ac4), 3.8 nM (BRD4-BD1, BPS Bioscience #31040) or 20 nM (BRD4-BD2, BPS Bioscience #31041). The reaction followed by the addition of 20 μL of assay buffer supplemented with Streptavidin donor beads (PerkinElmer 6760002) and GSH Acceptor beads (PerkinElmer-AL 109C) at 4 μg/mL under reduced light. After plate sealing, the plate was incubated in the dark at room temperature for 75 min. before reading on a PHERAstar FS plate reader (BMG Labtech). IC50 determination was performed by fitting the curve of percent control activity versus the log of the inhibitor concentration using the GraphPad Prism 5.0 software. IC50 data for the Examples is presented in Table 1 as determined by Assay A1.

BRD4-BD1 = target: T2, BRD4-BD1 (Homo sapiens, UniProt O60885); assay: BRD4 AlphaScreen assay, BD1; assay type: binding; conditions: H4Ac4 peptide, 3.8 nM BRD4-BD1, read-out: BRD4 BD-1 enzyme IC50
T2 construct: 3.8 nM (BRD4-BD1, BPS Bioscience #31040); purchased BPS Bioscience 31040
Description: as §1

| IC50 (BRD4-BD2) [nM] | IC50 (BRD4-BD1) [µM] | SMILES |
| --- | --- | --- |
| ≤ 100 | 1 to 10 | Cn1cc(-c2c(Oc3ccc(F)cc3F)ccc3[nH]cnc23)c2cc[nH]c2c1=O [Example 2, 4-[5-(2,4-Difluorophenoxy)-1H-benzimidazol-4-yl]-6-methyl-1,6-dihydro-7H-pyrrolo[2,3-c]pyridin-7-one] |
| 100 to 1000 | 1 to 10 | Cn1cc(-c2c(Oc3ccc(F)cc3F)ccc3[nH]c(=O)[nH]c23)c2cc[nH]c2c1=O [Example 1, 5-(2,4-Difluorophenoxy)-4-(6-methyl-7-oxo-6,7-dihydro-H-pyrrolo[2,3-c]pyridin-4-yl)-1,3-dihydro-2H-benzimidazol-2-one] |
